This assay deals with contralateral nasolabial folds of subjects sensitive to glycolic acid. Kind of assay: in-vivo sting test (sting/burn propensity and forced choice). Details: species or system human. The settings on record: additive in Base Formula A + 8% glycolic acid, pH 3.8; result in words.

Description: Procedure for in-vivo sting test: This was a randomized, double blind study where each subject evaluated one test formulation and a control formulation or two test formulations on contralateral nasolabial folds. […] A maximum of 20 qualified subjects (minimum of 15) were utilized in each subsequent test. One paired comparison was made on each testing day, with a minimum of 3 days between sting testing throughout the study. Subjects underwent a 15 second Ivory soap wash regime immediately prior to product testing for enhancing sting response. […] Study personnel then applied one test formulation and one control or test formulation simultaneously to the appropriate left/right test site, and gently but thoroughly rubbed in. Subjects compared the stinging potential of the two formulations, over a 7.5 minute period using a self-assessment questionnaire.
Sting/Burn Propensity: The degree of stinging/burning felt on the left and right inner cheek and crease of the nose was evaluated using the following scale at the times indicated in Tables below:
0-no stinging/burning; 1-very slight stinging/burning; 2-slight stinging/burning; 3- moderate stinging/burning; 4-moderately high stinging/burning; 5-high stinging/burning; 6-extreme stinging/burning. […]
Statistical significance was determined at p≦0.1.

With `C[C@]12CCC(=O)C=C1CC[C@@H]1[C@@H]2[C@@H](O)C[C@@]2(C)[C@H]1CC[C@]2(O)C(=O)CO` [hydrocortisone], the “effect of additive on sting of Base Formula A containing 8% glycolic acid” value was “neither hydrocortisone nor arabinogalactan reduced the sting”.

(Values after US6610741B1, “Skin cosmetic compositions containing a weak carboxylic acid and random copolymers of ethylene oxides and propylene oxides” (Unilever Home & Personal Care USA division of Conopco, Inc., priority 1999, dated 2003).)
